pIC50: −log10 of the molar value.

One may read the pIC50 as the negative decadic logarithm of the IC50, by convention in mol/L.

Human Cot, sequence (P41279 30-397): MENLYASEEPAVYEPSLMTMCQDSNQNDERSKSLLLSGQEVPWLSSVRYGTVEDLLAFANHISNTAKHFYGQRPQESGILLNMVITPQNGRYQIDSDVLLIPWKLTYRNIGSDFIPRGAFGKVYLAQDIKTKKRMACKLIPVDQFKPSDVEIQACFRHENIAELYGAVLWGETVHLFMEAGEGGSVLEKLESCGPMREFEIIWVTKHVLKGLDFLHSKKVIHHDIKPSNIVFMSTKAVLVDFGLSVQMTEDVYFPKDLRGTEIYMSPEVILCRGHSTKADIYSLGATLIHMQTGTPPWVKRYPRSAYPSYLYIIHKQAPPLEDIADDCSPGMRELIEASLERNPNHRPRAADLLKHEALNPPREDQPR

One assay concerns the target Human Cot (Homo sapiens (Human), UniProt P41279). In words: High Throughput Cot Biochemical Assay. The note with it: IC50 HTRF, Cot HTRF (TR-FRET KinEASE) biochemical assay, 400 μM ATP.
`C[C@@H](CF)n1cc([C@@H](Nc2cc(Cl)c3ncc(C#N)c(NCC(C)(C)C)c3c2)c2cccc3ncccc23)nn1` [Example 803, 8-chloro-6-(((S)-(1-((S)-1-fluoropropan-2-yl)-1H-1,2,3-triazol-4-yl)(quinolin-5-yl)methyl)amino)-4-(neopentylamino)quinoline-3-carbonitrile] showed a pIC50 of 8.15.

`CC(C)(CNc1c(C#N)cnc2c(C#N)cc(N[C@H](c3cn(C4(C(F)F)CC4)nn3)c3ccc(F)c4ncccc34)cc12)C(F)(F)F` [Example 815, (S)-6-(((1-{1-(difluoromethyl)-cyclopropyl)-1H-1,2,3-triazol-4-yl)(8-fluoroquinolin-5-yl)methyl)amino)-4-((3,3,3-trifluoro-2,2-dimethylpropyl)amino)quinoline-3,8-dicarbonitrile] had a pIC50 of 8.52.

Molecule `CC(C)(CNc1c(C#N)cnc2c(C#N)cc(N[C@H](c3cn(C45CC(C4)C5)nn3)c3ccc(F)c4ncccc34)cc12)C(F)(F)F` [Example 816, (S)-6-(((1-(bicyclo[1.1.1]pentan-1-yl)-1H-1,2,3-triazol-4-yl)(8-fluoroquinolin-5-yl)methyl)amino)-4-((3,3,3-trifluoro-2,2-dimethylpropyl)amino)quinoline-3,8-dicarbonitrile] gave a negative logarithm of the IC50 (pIC50) of 9.00.

In turn, `CC(C)(C)CNc1c(C#N)cnc2c(C#N)cc(N[C@H](c3cn(C4(C(F)(F)F)CC4)nn3)c3csc4cnccc34)cc12` [Example 855, (S)-4-(neopentylamino)-6-((thieno[2,3-c]pyridin-3-yl(1-(1-(trifluoro-methyl)cyclopropyl)-1H-1,2,3-triazol-4-yl)methyl)-amino)quinoline-3,8-dicarbonitrile] had a negative logarithm of the IC50 (pIC50) of 8.70.

`COc1c([C@@H](Nc2cc(C#N)c3ncc(C#N)c(NCC(C)(C)C)c3c2)c2ccc(F)nc2C)nnn1C1CC1` [Example 859, (S)-6-(((1-cyclopropyl-5-methoxy-1H-1,2,3-triazol-4-yl)(6-fluoro-2-methylpyridin-3-yl)methyl)amino)-4-(neopentylamino)quinoline-3,8-dicarbonitrile] had a negative logarithm of the IC50 (pIC50) of 8.70.

Molecule `Cc1nc(F)ccc1[C@H](Nc1cc(C#N)c2ncc(C#N)c(NCC(C)(C)C)c2c1)c1cn(C(CF)CF)nn1` [Example 869, (S)-6-(((1-(1,3-difluoropropan-2-yl)-1H-1,2,3-triazol-4-yl)(6-fluoro-2-methylpyridin-3-yl)methyl)amino)-4-(neopentylamino)quinoline-3,8-dicarbonitrile] showed a pIC50 of 8.70.

The same assay, now with this note: IC50 HTRF, Cot HTRF (TR-FRET) biochemical assay.
The molecule `CC(C)(C)CNc1c(C#N)cnc2c(Cl)cc(N[C@H](c3cn(C4(C(F)(F)F)CC4)nn3)c3ccc(F)c4ncccc34)cc12` [Example 617, (S)-8-chloro-6-(((8-fluoroquinolin-5-yl)(1-(1-(trifluoromethyl)cyclopropyl)-1H-1,2,3-triazol-4-yl)methyl)amino)-4-(neopentylamino)quinoline-3-carbonitrile] showed a pIC50 of 8.05.

Molecule `Cn1ccc2c([C@H](Nc3cc(Cl)c4ncc(C#N)c(NCC(C)(C)C)c4c3)c3cn(C4(C(F)(F)F)CC4)nn3)cccc2c1=O` [Example 618, (S)-8-chloro-6-(((2-methyl-1-oxo-1,2-dihydroisoquinolin-5-yl)(1-(1-(trifluoromethyl)cyclopropyl)-1H-1,2,3-triazol-4-yl)methyl)amino)-4-(neopentylamino)quinoline-3-carbonitrile] had a pIC50 of 8.52.

`Cc1nc(F)ccc1[C@H](Nc1cc(C#N)c2ncc(C#N)c(NCC(C)(C)C)c2c1)c1cn(C23CC(C2)C3)nn1` [Example 649, (S)-6-(((1-(bicyclo[1.1.1]pentan-1-yl)-1H-1,2,3-triazol-4-yl)(6-fluoro-2-methylpyridin-3-yl)methyl)amino)-4-(neopentylamino)quinoline-3,8-dicarbonitrile] showed a negative-log IC50 (pIC50) of 8.70.

`CC(C)(C)CNc1c(C#N)cnc2c(Cl)cc(N[C@H](c3cn(C4(C(F)F)CC4)nn3)c3ccc(F)c4ncccc34)cc12` [Example 653, (S)-8-chloro-6-(((1-(1-(difluoromethyl)cyclopropyl)-1H-1,2,3-triazol-4-yl)(8-fluoroquinolin-5-yl)methyl)amino)-4-(neopentylamino)quinoline-3-carbonitrile] showed a pIC50 of 8.40.

As for `Cc1nc(F)ccc1[C@H](Nc1cc(Cl)c2ncc(C#N)c(NCC(C)(C)C)c2c1)c1nnn(C2CC2)c1C#N` [Example 686, (S)-8-chloro-6-(((5-cyano-1-cyclopropyl-1H-1,2,3-triazol-4-yl)(6-fluoro-2-methylpyridin-3-yl)methyl)amino)-4-(neopentylamino)quinoline-3-carbonitrile], the negative-log IC50 (pIC50) is 8.40.

Regarding `Cn1ccc2c([C@H](Nc3cc(Cl)c4ncc(C#N)c(NCC(C)(C)C(F)(F)F)c4c3)c3cn(C4(C5CC5)CC4)nn3)cccc2c1=O` [Example 783, (S)-6-(((1-([1,1′-bi(cyclopropan)]-1-yl)-1H-1,2,3-triazol-4-yl)(2-methyl-1-oxo-1,2-dihydroisoquinolin-5-yl)methyl)amino)-8-chloro-4-((3,3,3-trifluoro-2,2-dimethylpropyl)amino)quinoline-3-carbonitrile], the pIC50 was 8.70.

`Cn1ccc2c([C@H](Nc3cc(Cl)c4ncc(C#N)c(NCC(C)(C)C(F)(F)F)c4c3)c3cn(C45CC(C4)C5)nn3)cccc2c1=O` [Example 785, (S)-6-(((1-(bicyclo[1.1.1]pentan-1-yl)-1H-1,2,3-triazol-4-yl)(2-methyl-1-oxo-1,2-dihydroisoquinolin-5-yl)methyl)amino)-8-chloro-4-((3,3,3-trifluoro-2,2-dimethylpropyl)amino)quinoline-3-carbonitrile] had a pIC50 of 8.70.

`Cn1c(=O)ccc2c([C@H](Nc3cc(Cl)c4ncc(C#N)c(NCC(C)(C)C)c4c3)c3cn(C45CC(C4)C5)nn3)cccc21` [Example 786, (S)-6-(((1-(bicyclo[1.1.1]pentan-1-yl)-1H-1,2,3-triazol-4-yl)(1-methyl-2-oxo-1,2-dihydroquinolin-5-yl)methyl)amino)-8-chloro-4-(neopentylamino)quinoline-3-carbonitrile] showed a pIC50 of 8.30.

The molecule `CC1(n2cc([C@@H](Nc3cc(Cl)c4ncc(C#N)c(NCC(C)(C)C(F)(F)F)c4c3)c3cccc4ncccc34)nn2)CC1` [Example 797, (S)-8-chloro-6-(((1-(1-methylcyclopropyl)-1H-1,2,3-triazol-4-yl)(quinolin-5-yl)methyl)amino)-4-((3,3,3-trifluoro-2,2-dimethylpropyl)amino)quinoline-3-carbonitrile] showed a negative logarithm of the IC50 (pIC50) of 8.52.

The same assay, now with this note: read-out: IC50 HTRF; Cot HTRF (TR-FRET KinEASE) biochemical assay, 400 μM ATP.
Consider `Cc1nc(F)ccc1[C@H](Nc1cc(C#N)c2ncc(C#N)c(NCC(C)(C)C)c2c1)c1nnn(C2(C3CC3)CC2)c1F` [Example 865], for which the pIC50 was 8.40.

Still in this assay, the particulars now being: read-out: IC50 HTRF; Cot HTRF (TR-FRET) biochemical assay.
On to `CC(C)(C)CNc1c(C#N)cnc2c(C#N)cc(N[C@H](c3cn(C4(C5CC5)CC4)nn3)c3cccc4ncccc34)cc12` [Example 696], for which the pIC50 was 8.70.

`Cc1ncsc1[C@H](Nc1cc(Cl)c2ncc(C#N)c(NCC(C)(C)C)c2c1)c1cn(C2(C(F)(F)F)CC2)nn1` [Example 701, (R)-8-chloro-6-(((4-methylthiazol-5-yl)(1-(1-(trifluoromethyl)cyclopropyl)-1H-1,2,3-triazol-4-yl)methyl)airiino)-4-(neopentylamino)quinoline-3-carbonitrile]: the pIC50 is 8.00.
